# According to patent publication US9371336B2, “Compounds for treating spinal muscular atrophy” (PTC Therapeutics Inc., priority 2012, dated 2016):
# Tests used:
# [1] = test system: Smn protein; test: Smn protein assay (HTRF) in cultured cells (SMA patient fibroblasts GM03813); assay type: cell-based, human; details: 48 hours; for EC1.5x for Smn protein expression: SMA patient fibroblast cells (GM03813), HTRF, 7-point concentration data, concentration producing 1.5 times Smn protein vs DMSO vehicle control; for maximum fold (Fold) increase of Smn protein: SMA patient fibroblast cells, 7-point concentration curve, relative to vehicle control
# Summary of the method: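 SMA patient fibroblasts (GM03813) were treated 48 h at 37° C with a 7-point, 3.16-fold compound series in triplicate, then lysed in RIPA. Smn was read by HTRF (anti-SMN d2/kryptate, 665/620 nm ratio). ΔF versus blank was divided by vehicle ΔF to give fold Smn increase.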
# [2] = test system: SMN2 minigene mRNA (SMN2-A minigene construct); test: SMN2 minigene mRNA splicing RT-qPCR assay in cultured cells; assay type: cell-based, human; details: Homo sapiens, HEK293-H; HEK293H cells stably transfected with SMN2-A minigene, 24 hours, 7-point concentration data; concentration giving 1.5-fold SMN2 full length mRNA relative to vehicle-treated cells; read-out: EC1.5x for production of full length SMN2 mRNA
# Summary of the method: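 Full-length SMN2 minigene mRNA, measured by exon 7/luciferase-specific RT-qPCR that excludes endogenous SMN1/SMN2, was normalized to GAPDH and expressed relative to vehicle-treated cells via modified ΔΔCt. Stably transfected HEK293H cells received compound (7-point, 3.16-fold series, duplicates) for 24 h at 37 °C.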
Structure (SMILES),melting point,EC1.5x for Smn protein expression [1],maximum fold (Fold) increase of Smn protein [1],EC (1.5-fold) [2]
"CN1CCCN(c2ccc3cc(-c4cn5cccnc5n4)c(=O)oc3n2)CC1 [Cpd 36, 3-(imidazo[1,2-a]pyrimidin-2-yl)-7-(4-methyl-1,4-diazepan-1-yl)-2H-pyrano[2,3-b]pyridin-2-one]",232 to 234 °C,** (an EC1.5× between >1 and ≦3 μM is indicated by two stars (**)),**** (a fold increase between >1.5 and ≦1.65 is indicated by four stars (****)),0.3 to 1 µM
"CN1CCCN(c2ccc3cc(-c4nc5c(Cl)cccc5s4)c(=O)oc3n2)CC1 [Cpd 37, 3-(4-chloro-1,3-benzothiazol-2-yl)-7-(4-methyl-1,4-diazepan-1-yl)-2H-pyrano[2,3-b]pyridin-2-one]",263 to 265 °C,** (an EC1.5× between >1 and ≦3 μM is indicated by two stars (**)),*** (a fold increase between >1.35 and ≦1.5 is indicated by three stars (***)),≤ 0.1 µM
"Cl.O=c1oc2cc(N3CCNCC3)ncc2cc1-c1cn2ccccc2n1 [Cpd 42, 3-(imidazo[1,2-a]pyridin-2-yl)-7-(piperazin-1-yl)-2H-pyrano[3,2-c]pyridin-2-one hydrochloride]",278 to 284 °C,–,** (a fold increase between >1.2 and ≦1.35 is indicated by two stars (**)),3 to 30 µM
"Cl.O=c1oc2nc(N3CCCNCC3)ccc2cc1-c1cn2ccccc2n1 [Cpd 45, 7-(1,4-diazepan-1-yl)-3-(imidazo[1,2-a]pyridin-2-yl)-2H-pyrano[2,3-b]pyridin-2-one hydrochloride]",265 to 267 °C,*** (an EC1.5× between >0.3 μM and ≦1 μM is indicated by three stars (***)),**** (a fold increase between >1.5 and ≦1.65 is indicated by four stars (****)),0.1 to 0.3 µM
"Cl.O=c1oc2nc(N3CCCNCC3)ccc2cc1-c1cn2cccc(F)c2n1 [Cpd 46, 7-(1,4-diazepan-1-yl)-3-(8-fluoroimidazo[1,2-a]pyridin-2-yl)-2H-pyrano[2,3-b]pyridin-2-one hydrochloride]",267 to 269 °C,**** (an EC1.5×≦0.3 μM is indicated by four stars (****)),**** (a fold increase between >1.5 and ≦1.65 is indicated by four stars (****)),≤ 0.1 µM
"Cl.O=c1oc2nc(N3CCCNCC3)ccc2cc1-c1cn2cccc(Cl)c2n1 [Cpd 47, 3-(8-chloroimidazo[1,2-a]pyridin-2-yl)-7-(1,4-diazepan-1-yl)-2H-pyrano[2,3-b]pyridin-2-one hydrochloride]",252 to 255 °C,**** (an EC1.5×≦0.3 μM is indicated by four stars (****)),***** (a fold increase >1.65 is indicated by five stars (*****)),≤ 0.1 µM
"CN1CCCN(c2ccc3cc(-c4cn5cccc(F)c5n4)c(=O)oc3n2)CC1 [Cpd 49, 3-(8-fluoroimidazo[1,2-a]pyridin-2-yl)-7-(4-methyl-1,4-diazepan-1-yl)-2H-pyrano[2,3-b]pyridin-2-one]",269 to 272 °C,*** (an EC1.5× between >0.3 μM and ≦1 μM is indicated by three stars (***)),**** (a fold increase between >1.5 and ≦1.65 is indicated by four stars (****)),≤ 0.1 µM
"CN1CCCN(c2ccc3cc(-c4cn5cccc(Cl)c5n4)c(=O)oc3n2)CC1 [Cpd 50, 3-(8-chloroimidazo[1,2-a]pyridin-2-yl)-7-(4-methyl-1,4-diazepan-1-yl)-2H-pyrano[2,3-b]pyridin-2-one]",245 to 246 °C,**** (an EC1.5×≦0.3 μM is indicated by four stars (****)),***** (a fold increase >1.65 is indicated by five stars (*****)),≤ 0.1 µM
"Cl.O=c1oc2nc(N3CCCNCC3)ccc2cc1-c1nc2ccccc2s1 [Cpd 51, 3-(1,3-benzothiazol-2-yl)-7-(1,4-diazepan-1-yl)-2H-pyrano[2,3-b]pyridin-2-one hydrochloride]",284 to 286 °C,–,** (a fold increase between >1.2 and ≦1.35 is indicated by two stars (**)),0.3 to 1 µM
"Cl.O=c1oc2nc(N3CCCNCC3)ccc2cc1-c1nc2ccccc2o1 [Cpd 52, 3-(1,3-benzoxazol-2-yl)-7-(1,4-diazepan-1-yl)-2H-pyrano[2,3-b]pyridin-2-one hydrochloride]",243 to 245 °C,–,* (A maximum fold increase ≦1.2 is indicated by one star (*)),3 to 30 µM
"Cc1cn2cc(-c3cc4cnc(N5CCN(C)CC5)cc4oc3=O)nc2s1 [Cpd 55, 3-(2-methylimidazo[2,1-b][1,3]thiazol-6-yl)-7-(4-methylpiperazin-1-yl)-2H-pyrano[3,2-c]pyridin-2-one]",282 to 286 °C,** (an EC1.5× between >1 and ≦3 μM is indicated by two stars (**)),*** (a fold increase between >1.35 and ≦1.5 is indicated by three stars (***)),1 to 3 µM
"CN1CCCN(c2ccc3cc(-c4nc5ccccc5s4)c(=O)oc3n2)CC1 [Cpd 56, 3-(1,3-benzothiazol-2-yl)-7-(4-methyl-1,4-diazepan-1-yl)-2H-pyrano[2,3-b]pyridin-2-one]",274 to 276 °C,* (An EC1.5× for Smn protein expression between >3 μM and ≦10 μM is indicated by one star (*)),** (a fold increase between >1.2 and ≦1.35 is indicated by two stars (**)),0.1 to 0.3 µM
"C[C@@H]1CN(c2ccc3cc(-c4cn5ccccc5n4)c(=O)oc3n2)C[C@H](C)N1 [Cpd 60, 7-[(3R,5S)-3,5-dimethylpiperazin-1-yl]-3-(imidazo[1,2-a]pyridin-2-yl)-2H-pyrano[2,3-b]pyridin-2-one]",283 to 285 °C,** (an EC1.5× between >1 and ≦3 μM is indicated by two stars (**)),*** (a fold increase between >1.35 and ≦1.5 is indicated by three stars (***)),≤ 0.1 µM

# The next lines start with results.
melting point,Structure (SMILES),EC1.5x for Smn protein expression [1],maximum fold (Fold) increase of Smn protein [1],EC (1.5-fold) [2]
243 to 246 °C,"CN1CCN(c2ccc3cc(-c4cn5ccccc5n4)c(=O)oc3n2)CC1 [Cpd 38, 3-(imidazo[1,2-a]pyridin-2-yl)-7-(4-methylpiperazin-1-yl)-2H-pyrano[2,3-b]pyridin-2-one]",*** (an EC1.5× between >0.3 μM and ≦1 μM is indicated by three stars (***)),***** (a fold increase >1.65 is indicated by five stars (*****)),0.1 to 0.3 µM
264 to 268 °C,"Cc1ccn2cc(-c3cc4ccc(N5CCN(C)CC5)nc4oc3=O)nc2c1 [Cpd 39, 3-(7-methylimidazo[1,2-a]pyridin-2-yl)-7-(4-methylpiperazin-1-yl)-2H-pyrano[2,3-b]pyridin-2-one]",**** (an EC1.5×≦0.3 μM is indicated by four stars (****)),**** (a fold increase between >1.5 and ≦1.65 is indicated by four stars (****)),≤ 0.1 µM
271 to 274 °C,"CN1CCCN(c2ccc3cc(-c4cn5ccccc5n4)c(=O)oc3n2)CC1 [Cpd 48, 3-(imidazo[1,2-a]pyridin-2-yl)-7-(4-methyl-1,4-diazepan-1-yl)-2H-pyrano[2,3-b]pyridin-2-one]",*** (an EC1.5× between >0.3 μM and ≦1 μM is indicated by three stars (***)),**** (a fold increase between >1.5 and ≦1.65 is indicated by four stars (****)),0.1 to 0.3 µM
264 to 268 °C,"Cc1ccn2nc(-c3cc4ccc(N5CCN(C)CC5)nc4oc3=O)cc2c1 [Cpd 53, 7-(4-methylpiperazin-1-yl)-3-(5-methylpyrazolo[1,5-a]pyridin-2-yl)-2H-pyrano[2,3-b]pyridin-2-one]",–,*** (a fold increase between >1.35 and ≦1.5 is indicated by three stars (***)),0.1 to 0.3 µM
268 to 272 °C,"CN1CCN(c2ccc3cc(-c4cn5ccsc5n4)c(=O)oc3n2)CC1 [Cpd 54, 3-(imidazo[2,1-b][1,3]thiazol-6-yl)-7-(4-methylpiperazin-1-yl)-2H-pyrano[2,3-b]pyridin-2-one]",*** (an EC1.5× between >0.3 μM and ≦1 μM is indicated by three stars (***)),**** (a fold increase between >1.5 and ≦1.65 is indicated by four stars (****)),0.1 to 0.3 µM
246 to 250 °C,"Cc1ccn2cc(-c3cc4ccc(N5CCN(C)[C@@H](C)C5)nc4oc3=O)nc2c1 [Cpd 61, 7-[(3S)-3,4-dimethylpiperazin-1-yl]-3-(7-methylimidazo[1,2-a]pyridin-2-yl)-2H-pyrano[2,3-b]pyridin-2-one]",**** (an EC1.5×≦0.3 μM is indicated by four stars (****)),**** (a fold increase between >1.5 and ≦1.65 is indicated by four stars (****)),≤ 0.1 µM
